This is an account of results in ChEMBL document CHEMBL1136540, “Discovery of selective phosphonamide-based inhibitors of tumor necrosis factor-alpha converting enzyme (TACE)” (Bioorg Med Chem Lett, 2003).

For assay [1], the target named is T1, Disintegrin and metalloproteinase domain-containing protein 17 (Homo sapiens, UniProt P78536). Kind of assay: Inhibition of recombinant human tumor necrosis factor-alpha converting enzyme.
For assay [2], the target named is T2, Stromelysin-1 (Homo sapiens, UniProt P08254). The experiment in a line: Inhibition of recombinant human Matrix metalloprotease-3 at 1000 nM.
Target sequence in this assay (P08254 100-477 limits assumed): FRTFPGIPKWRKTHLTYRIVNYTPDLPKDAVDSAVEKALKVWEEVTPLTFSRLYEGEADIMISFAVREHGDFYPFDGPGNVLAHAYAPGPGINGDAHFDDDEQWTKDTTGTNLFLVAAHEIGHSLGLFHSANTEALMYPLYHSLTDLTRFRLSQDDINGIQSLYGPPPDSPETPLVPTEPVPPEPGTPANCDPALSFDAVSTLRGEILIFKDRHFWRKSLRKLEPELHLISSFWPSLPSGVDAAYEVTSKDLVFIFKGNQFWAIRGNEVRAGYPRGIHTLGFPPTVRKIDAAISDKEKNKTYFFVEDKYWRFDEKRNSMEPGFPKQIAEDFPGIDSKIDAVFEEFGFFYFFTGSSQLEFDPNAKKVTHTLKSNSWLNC
For assay [3], the target named is T3, Interstitial collagenase (Homo sapiens) (UniProt P03956).
T3 sequence (whole entry): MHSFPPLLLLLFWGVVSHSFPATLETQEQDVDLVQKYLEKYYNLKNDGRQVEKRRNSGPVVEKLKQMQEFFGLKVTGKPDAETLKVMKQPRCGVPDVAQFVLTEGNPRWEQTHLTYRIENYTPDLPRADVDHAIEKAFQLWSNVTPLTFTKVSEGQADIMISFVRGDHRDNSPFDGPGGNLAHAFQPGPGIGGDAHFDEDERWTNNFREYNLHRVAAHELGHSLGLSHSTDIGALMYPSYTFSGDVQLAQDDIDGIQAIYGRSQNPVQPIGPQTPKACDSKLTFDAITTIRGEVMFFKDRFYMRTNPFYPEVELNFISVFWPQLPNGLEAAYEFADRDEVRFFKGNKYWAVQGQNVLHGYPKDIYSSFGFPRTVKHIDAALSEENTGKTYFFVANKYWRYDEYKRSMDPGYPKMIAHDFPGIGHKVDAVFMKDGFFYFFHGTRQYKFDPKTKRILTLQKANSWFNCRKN
The experiment in a line: Inhibition of recombinant human matrix metalloprotease-1 at 1000 nM.

Assay [4] deals with T4, Matrix metalloproteinase-9 (Homo sapiens, UniProt P14780). The note with it: 1000 nM.
T4 sequence (P14780 whole entry): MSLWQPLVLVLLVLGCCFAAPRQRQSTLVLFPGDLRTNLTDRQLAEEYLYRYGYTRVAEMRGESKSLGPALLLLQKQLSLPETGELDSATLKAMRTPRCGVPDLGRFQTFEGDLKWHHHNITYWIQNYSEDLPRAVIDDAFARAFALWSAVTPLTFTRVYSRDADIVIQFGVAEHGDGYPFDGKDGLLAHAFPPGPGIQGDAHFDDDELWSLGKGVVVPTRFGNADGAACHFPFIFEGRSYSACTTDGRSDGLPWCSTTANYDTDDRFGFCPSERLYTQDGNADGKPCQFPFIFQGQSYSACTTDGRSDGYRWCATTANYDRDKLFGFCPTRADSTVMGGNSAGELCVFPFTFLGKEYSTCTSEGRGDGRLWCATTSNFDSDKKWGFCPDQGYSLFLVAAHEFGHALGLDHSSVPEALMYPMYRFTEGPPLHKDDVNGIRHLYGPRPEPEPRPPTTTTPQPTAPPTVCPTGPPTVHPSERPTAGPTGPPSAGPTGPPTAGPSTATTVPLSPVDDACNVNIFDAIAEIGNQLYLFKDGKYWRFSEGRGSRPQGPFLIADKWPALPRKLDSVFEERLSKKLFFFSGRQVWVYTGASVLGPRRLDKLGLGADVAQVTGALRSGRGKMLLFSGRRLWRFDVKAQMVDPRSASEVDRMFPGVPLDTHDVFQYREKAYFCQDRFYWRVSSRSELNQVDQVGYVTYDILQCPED
Description: Inhibition of recombinant human Matrix metalloprotease-9 at 1000 nM
Assay [5] concerns the target T3, Interstitial collagenase (Homo sapiens). The experiment in a line: Inhibition of recombinant human Matrix metalloprotease-1 at 1000 nM.
Assay [6] deals with T1, Disintegrin and metalloproteinase domain-containing protein 17. The conditions noted are these: 1000 nM.
Description: Inhibition of recombinant human TACE at 1000 nM
The target of assay [7] is T2, Stromelysin-1. Kind of assay: Inhibition of recombinant human Matrix metalloprotease-3.
Target sequence in this assay (P08254 whole entry): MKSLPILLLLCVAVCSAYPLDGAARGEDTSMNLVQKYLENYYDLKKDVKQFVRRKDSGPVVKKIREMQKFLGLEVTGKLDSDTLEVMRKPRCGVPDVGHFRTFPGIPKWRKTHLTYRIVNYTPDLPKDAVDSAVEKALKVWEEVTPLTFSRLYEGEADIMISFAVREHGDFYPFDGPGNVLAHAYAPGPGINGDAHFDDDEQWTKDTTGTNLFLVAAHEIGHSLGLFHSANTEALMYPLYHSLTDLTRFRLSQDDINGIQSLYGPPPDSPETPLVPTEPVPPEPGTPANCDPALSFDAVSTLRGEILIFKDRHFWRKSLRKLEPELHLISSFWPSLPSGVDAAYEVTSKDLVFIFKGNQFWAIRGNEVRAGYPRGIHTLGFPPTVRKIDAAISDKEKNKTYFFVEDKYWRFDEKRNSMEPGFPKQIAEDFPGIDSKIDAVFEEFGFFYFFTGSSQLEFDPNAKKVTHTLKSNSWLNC
Assay [8] has as its target T4, Matrix metalloproteinase-9. The experiment in a line: Inhibition of recombinant human Matrix metalloprotease-9.
Assay [9] deals with T5, Interstitial collagenase (Homo sapiens, UniProt P03956).
T5 sequence (P03956 whole entry): T3 sequence (whole entry)
The experiment in a line: Inhibition of recombinant human Matrix metalloprotease-1.

In assay [10] the target is T5, Interstitial collagenase. Kind of assay: Inhibition of recombinant human matrix metalloprotease-1.

T1 sequence (P78536 whole entry, the tested form may be a part): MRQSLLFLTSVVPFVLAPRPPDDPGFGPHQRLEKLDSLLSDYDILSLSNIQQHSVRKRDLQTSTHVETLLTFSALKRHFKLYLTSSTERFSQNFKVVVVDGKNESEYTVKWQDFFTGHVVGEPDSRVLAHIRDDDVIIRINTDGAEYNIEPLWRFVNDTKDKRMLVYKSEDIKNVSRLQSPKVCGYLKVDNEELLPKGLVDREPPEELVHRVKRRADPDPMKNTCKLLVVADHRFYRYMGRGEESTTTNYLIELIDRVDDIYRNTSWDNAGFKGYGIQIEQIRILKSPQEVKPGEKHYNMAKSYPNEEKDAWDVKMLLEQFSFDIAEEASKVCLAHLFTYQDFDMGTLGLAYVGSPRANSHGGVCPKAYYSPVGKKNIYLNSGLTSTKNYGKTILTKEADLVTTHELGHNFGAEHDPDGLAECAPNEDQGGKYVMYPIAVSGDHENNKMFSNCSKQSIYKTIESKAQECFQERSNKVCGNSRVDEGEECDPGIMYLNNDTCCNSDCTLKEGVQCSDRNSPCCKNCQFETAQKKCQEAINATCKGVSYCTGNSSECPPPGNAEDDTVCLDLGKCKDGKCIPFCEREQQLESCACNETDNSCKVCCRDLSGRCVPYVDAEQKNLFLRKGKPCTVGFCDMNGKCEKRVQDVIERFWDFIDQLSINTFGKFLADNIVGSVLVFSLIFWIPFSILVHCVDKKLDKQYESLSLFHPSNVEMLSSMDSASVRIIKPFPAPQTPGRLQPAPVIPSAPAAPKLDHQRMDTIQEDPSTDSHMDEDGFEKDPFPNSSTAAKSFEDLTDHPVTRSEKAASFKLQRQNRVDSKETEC

Consider `CCOP(=O)(c1ccc(OC)cc1)N1Cc2ccccc2C[C@@H]1C(=O)NO` (single isomer, unassigned), for which, in [1], the inhibitory constant (Ki) came out at 7.15 nM.
With `CCOP(=O)(N[C@@H](CCC(=O)NCCc1ccccc1)C(=O)NO)c1ccc(OC)cc1` (stereo partly specified), the inhibition on Stromelysin-1 [2] came to 47%; in [3], 27%; in assay [4], 24%. Also, the Ki in assay [1] came to 10 nM.
Turning to `CCOP(=O)(N[C@@H](CC(C)C)C(=O)NO)c1ccc(OC)cc1` (stereo partly specified), the inhibition was 17% at Stromelysin-1 [2], 10% in [3] and 17% in [4]. Moreover, in assay [1], the Ki came to 76.4 nM.
Consider `CCOP(=O)(c1ccc(OC)cc1)N1Cc2ccccc2C[C@H]1C(=O)NO` (single isomer, unassigned), for which the inhibition at Stromelysin-1 [2] came to 9%; in [5], 26%; in [4], 18%; in assay [6], 41%.
Turning to `CCOP(=O)(N[C@H](CC(C)C)C(=O)NO)c1ccc(OC)cc1` (stereo partly specified), the inhibition constant (Ki) was found to be 69.8 nM at Stromelysin-1 [7], 165 nM in assay [8], 196 nM at Interstitial collagenase [9] and 5.06 nM in assay [1].
With `CCOP(=O)(N[C@H](CCC(=O)NCCc1ccccc1)C(=O)NO)c1ccc(OC)cc1` (stereo partly specified), the inhibitory constant (Ki) came out at 7.29 nM at Stromelysin-1 [7], 23.7 nM in assay [8], 40.4 nM on Interstitial collagenase [10] and 27.6 nM in assay [1].
